ChEMBL document CHEMBL2074061, “Inhibition of transport across the hepatocyte canalicular membrane by the antibiotic fusidate” (Biochem Pharmacol, 2002)

Tests used:
[1] = target: T1, ATP-binding cassette sub-family C member 2 (Rattus norvegicus, UniProt Q63120); assay: TP_TRANSPORTER: inhibition of LTC4 uptake in Mrp2-expressing HEK cells; assay type: functional, cell-based, HEK293
[2] = target: T2, Bile salt export pump (Rattus norvegicus, UniProt O70127); assay: TP_TRANSPORTER: inhibition of Taurocholate uptake in canalicular membrane vesicles of rat liver; assay type: functional, cell membranes, Canalicular membrane vesicle
T2 sequence (O70127 whole entry): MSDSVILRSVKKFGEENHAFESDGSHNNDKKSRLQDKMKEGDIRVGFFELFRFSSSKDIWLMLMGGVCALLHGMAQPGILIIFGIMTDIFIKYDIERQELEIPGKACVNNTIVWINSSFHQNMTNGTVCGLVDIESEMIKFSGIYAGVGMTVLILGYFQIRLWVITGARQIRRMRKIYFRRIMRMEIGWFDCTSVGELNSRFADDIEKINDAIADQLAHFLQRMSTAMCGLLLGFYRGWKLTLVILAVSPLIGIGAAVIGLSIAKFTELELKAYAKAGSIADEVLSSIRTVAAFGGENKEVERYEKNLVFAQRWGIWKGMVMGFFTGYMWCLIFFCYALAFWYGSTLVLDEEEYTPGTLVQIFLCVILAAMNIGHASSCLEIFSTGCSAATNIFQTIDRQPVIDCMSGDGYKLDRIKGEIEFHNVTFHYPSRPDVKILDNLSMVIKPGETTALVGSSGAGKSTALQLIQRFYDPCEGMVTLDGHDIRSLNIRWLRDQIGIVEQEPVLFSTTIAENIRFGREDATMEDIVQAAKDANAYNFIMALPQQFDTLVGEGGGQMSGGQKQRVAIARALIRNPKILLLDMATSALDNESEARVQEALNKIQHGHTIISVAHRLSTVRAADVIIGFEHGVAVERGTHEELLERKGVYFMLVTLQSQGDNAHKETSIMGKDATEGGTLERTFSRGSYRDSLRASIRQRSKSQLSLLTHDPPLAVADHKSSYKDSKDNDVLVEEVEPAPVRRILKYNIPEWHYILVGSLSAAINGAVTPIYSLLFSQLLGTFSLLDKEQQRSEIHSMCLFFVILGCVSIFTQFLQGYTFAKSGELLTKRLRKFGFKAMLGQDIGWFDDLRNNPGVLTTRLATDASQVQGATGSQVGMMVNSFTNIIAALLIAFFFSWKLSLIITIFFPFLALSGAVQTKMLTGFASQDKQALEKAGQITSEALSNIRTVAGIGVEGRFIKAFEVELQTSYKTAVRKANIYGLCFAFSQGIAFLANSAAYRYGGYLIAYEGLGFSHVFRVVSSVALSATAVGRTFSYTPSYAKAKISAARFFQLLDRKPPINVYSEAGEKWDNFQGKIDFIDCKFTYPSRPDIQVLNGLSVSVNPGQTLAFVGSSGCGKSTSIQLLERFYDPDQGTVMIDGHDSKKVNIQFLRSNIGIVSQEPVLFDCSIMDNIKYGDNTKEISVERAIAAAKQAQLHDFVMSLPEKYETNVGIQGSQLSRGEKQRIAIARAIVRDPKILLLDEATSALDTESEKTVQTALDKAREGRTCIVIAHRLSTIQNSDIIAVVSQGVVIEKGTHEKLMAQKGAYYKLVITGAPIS

[3] = target: T1, ATP-binding cassette sub-family C member 2; assay: TP_TRANSPORTER: inhibition of LTC4 uptake in canalicular membrane vesicles of rat liver; assay type: functional, cell membranes, Canalicular membrane vesicle
[4] = target: T1, ATP-binding cassette sub-family C member 2; assay: TP_TRANSPORTER: inhibition of E217betaG uptake in canalicular membrane vesicles of rat liver; assay type: functional, cell membranes, Canalicular membrane vesicle

T1 sequence (Q63120 whole entry): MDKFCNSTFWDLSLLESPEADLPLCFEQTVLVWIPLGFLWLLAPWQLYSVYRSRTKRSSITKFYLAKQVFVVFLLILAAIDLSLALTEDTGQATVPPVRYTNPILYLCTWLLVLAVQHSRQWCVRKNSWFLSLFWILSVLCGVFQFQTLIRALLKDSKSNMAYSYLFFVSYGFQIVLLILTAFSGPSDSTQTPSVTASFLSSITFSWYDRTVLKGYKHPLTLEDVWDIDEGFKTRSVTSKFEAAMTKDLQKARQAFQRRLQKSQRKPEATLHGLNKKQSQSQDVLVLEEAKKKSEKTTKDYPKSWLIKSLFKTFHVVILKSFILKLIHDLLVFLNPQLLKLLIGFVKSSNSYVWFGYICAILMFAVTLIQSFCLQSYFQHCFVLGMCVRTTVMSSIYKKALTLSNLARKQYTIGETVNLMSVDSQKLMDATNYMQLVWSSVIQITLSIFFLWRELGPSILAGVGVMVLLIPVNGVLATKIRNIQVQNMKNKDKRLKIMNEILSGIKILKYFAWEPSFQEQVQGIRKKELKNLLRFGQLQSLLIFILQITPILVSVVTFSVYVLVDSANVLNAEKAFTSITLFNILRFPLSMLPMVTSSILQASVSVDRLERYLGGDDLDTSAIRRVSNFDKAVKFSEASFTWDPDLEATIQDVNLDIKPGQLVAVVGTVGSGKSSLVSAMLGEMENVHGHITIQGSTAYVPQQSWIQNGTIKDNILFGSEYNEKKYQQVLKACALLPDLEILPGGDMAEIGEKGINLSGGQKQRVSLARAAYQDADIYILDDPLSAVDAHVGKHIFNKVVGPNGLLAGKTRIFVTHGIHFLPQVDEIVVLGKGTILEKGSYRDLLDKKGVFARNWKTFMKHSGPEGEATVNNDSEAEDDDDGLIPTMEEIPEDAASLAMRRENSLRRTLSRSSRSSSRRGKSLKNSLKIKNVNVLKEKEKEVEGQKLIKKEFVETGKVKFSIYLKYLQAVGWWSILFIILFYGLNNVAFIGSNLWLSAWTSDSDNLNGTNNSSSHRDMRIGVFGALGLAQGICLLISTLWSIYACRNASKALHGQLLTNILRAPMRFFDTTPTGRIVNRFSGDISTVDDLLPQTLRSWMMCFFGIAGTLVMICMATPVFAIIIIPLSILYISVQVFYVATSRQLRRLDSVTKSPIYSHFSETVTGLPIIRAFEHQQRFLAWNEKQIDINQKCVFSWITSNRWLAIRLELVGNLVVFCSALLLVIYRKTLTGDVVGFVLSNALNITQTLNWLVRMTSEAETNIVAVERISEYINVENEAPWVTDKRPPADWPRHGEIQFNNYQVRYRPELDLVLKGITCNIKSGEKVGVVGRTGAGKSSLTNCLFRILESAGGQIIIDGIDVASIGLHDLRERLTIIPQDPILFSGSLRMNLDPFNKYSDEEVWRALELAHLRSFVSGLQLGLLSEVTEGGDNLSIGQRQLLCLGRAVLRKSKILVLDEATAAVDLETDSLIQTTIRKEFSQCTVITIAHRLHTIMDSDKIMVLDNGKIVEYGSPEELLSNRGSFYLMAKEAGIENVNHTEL

Q: With `CC(=O)O[C@H]1C[C@@]2(C)[C@@H](C[C@@H](O)[C@H]3[C@@]4(C)CC[C@@H](O)[C@@H](C)[C@@H]4CC[C@@]32C)/C1=C(\CCC=C(C)C)C(=O)O` [FUSIDIC ACID] as the molecule, how does the Ki [1] read?
A: Its Ki is 13 µM.

Q: What about the Ki [2] of the same molecule?
A: The Ki was 2.2 µM.

Q: And the Ki [3]?
A: Its Ki is 5.5 µM.

Q: And the Ki [4]?
A: Its Ki is 7.6 µM.
